Source: US20230295234A1, “ANTIMICROBIAL PEPTIDOMIMETICS” (SPEXIS AG, priority 2020, published 2023)
Peptide text beside a SMILES is read from it.

Legend:
[1] = system: Escherichia coli ATCC 25922; settings: ATCC 25922
In short: (§1)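 Peptides were made up as 1 mg/mL stocks in sterile water. Colonies in 0.85% saline were set to 0.5 McFarland, then diluted in cation-adjusted Mueller-Hinton II broth to about 5×10^5 CFU/mL. Inoculum was combined with two-fold serial peptide dilutions in water containing 0.002% (final) polysorbate 80.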

[2] = system: Escherichia coli MCR-1 Af 45; settings: MCR-1 Af 45
In short: as §1

[3] = system: Klebsiella pneumoniae SSI3010; settings: SSI3010
In short: as §1

[4] = system: human red blood cells (hRBC); assay: Hemolysis of human red blood cells; type: cell-based; settings: red cells of human, 1 h
In short: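 Percent hemolysis is OD540 of peptide-treated supernatant relative to water-lysed cells. Each peptide was tested at 200 μg/mL against 20% (v/v) washed human erythrocytes. Incubation was 1 h at 37 °C, 300 rpm.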

Row | SMILES | Escherichia coli ATCC 25922 MIC [1] [µg/mL] | Escherichia coli MCR-1 Af 45 MIC [2] [µg/mL] | Klebsiella pneumoniae SSI3010 MIC [3] [µg/mL] | Hemolysis at 0.2 g/L [4] [%]
1 | CC[C@H](C)[C@H](NC(=O)[C@@H](NC(=O)[C@@H]1CCCN1C(=O)[C@@H](NC(=O)[C@@H]1CCCN1C(=O)[C@H](CCCCN)NC(=O)[C@@H](N)CCCCN)C(C)C)[C@@H](C)CC)C(=O)N[C@@H](Cc1ccc(O)cc1)C(=O)N[C@H]1CSSC[C@@H](C(=O)N[C@@H](CCN)C(=O)N[C@@H](CCCNC(=N)N)C(=O)N[C@@H](CC2CC2)C(=O)O)NC(=O)[C@H](CCCCN)NC(=O)[C@@H](CCN)NC(=O)[C@H]([C@@H](C)O)NC(=O)[C@H](CCN)NC(=O)[C@H](CCCNC(=N)N)NC(=O)[C@H](CC(N)=O)NC1=O [Example 79] (HELM PEPTIDE1{K.K.P.V.P.I.I.Y.C.N.R.[Dab].T.[NCC[C@@H](N[*:1])C(=O)[*:2]].K.C.[Dab].R.[O=C(O)[C@H](CC1CC1)N[*:1]]}$PEPTIDE1,PEPTIDE1,9:R3-16:R3$$$V2.0) | 0.0625 | ≤0.03125 | 0.125 | 0
2 | CC[C@H](C)[C@H](NC(=O)[C@@H](NC(=O)[C@@H]1CCCN1C(=O)[C@@H](NC(=O)[C@@H]1CCCN1C(=O)[C@H](CCCCN)NC(=O)[C@@H](N)CCCCN)C(C)C)[C@@H](C)CC)C(=O)N[C@@H](Cc1ccc(O)cc1)C(=O)N[C@H]1CSSC[C@@H](C(=O)N[C@@H](CCN)C(=O)N[C@@H](CCCNC(=N)N)C(=O)N[C@@H](CC2CCOCC2)C(=O)O)NC(=O)[C@H](CCCCN)NC(=O)[C@@H](CCN)NC(=O)[C@H]([C@@H](C)O)NC(=O)[C@H](CCN)NC(=O)[C@H](CCCNC(=N)N)NC(=O)[C@H](CC(N)=O)NC1=O [Example 80] (HELM PEPTIDE1{K.K.P.V.P.I.I.Y.C.N.R.[Dab].T.[NCC[C@@H](N[*:1])C(=O)[*:2]].K.C.[Dab].R.[O=C(O)[C@H](CC1CCOCC1)N[*:1]]}$PEPTIDE1,PEPTIDE1,9:R3-16:R3$$$V2.0) | 0.0625 | 0.0625 | 0.125 | 0
3 | CCC(CC)[C@H](NC(=O)[C@H](CCCNC(=N)N)NC(=O)[C@H](CCN)NC(=O)[C@@H]1CSSC[C@H](NC(=O)[C@H](Cc2ccc(O)cc2)NC(=O)[C@@H](NC(=O)[C@@H](NC(=O)[C@@H]2CCCN2C(=O)[C@@H](NC(=O)[C@@H]2CCCN2C(=O)[C@H](CCCCN)NC(=O)[C@@H](N)CCCCN)C(C)C)[C@@H](C)CC)[C@@H](C)CC)C(=O)N[C@@H](CC(N)=O)C(=O)N[C@@H](CCCNC(=N)N)C(=O)N[C@@H](CCN)C(=O)N[C@@H]([C@@H](C)O)C(=O)N[C@H](CCN)C(=O)N[C@@H](CCCCN)C(=O)N1)C(=O)O [Example 82] (HELM PEPTIDE1{K.K.P.V.P.I.I.Y.C.N.R.[Dab].T.[NCC[C@@H](N[*:1])C(=O)[*:2]].K.C.[Dab].R.[CCC(CC)[C@H](N[*:1])C(=O)O]}$PEPTIDE1,PEPTIDE1,9:R3-16:R3$$$V2.0) | 0.0625 | 0.0625 | 0.125 | 0
4 | CC[C@H](C)[C@H](NC(=O)[C@@H](NC(=O)[C@@H]1CCCN1C(=O)[C@@H](NC(=O)CCNC(=O)[C@H](CCCNC(=N)N)NC(=O)[C@@H](N)CCCCN)C(C)C)[C@@H](C)CC)C(=O)N[C@@H](Cc1ccc(O)cc1)C(=O)N[C@@H]1C(=O)N[C@@H](CC(N)=O)C(=O)N[C@@H](CCCNC(=N)N)C(=O)N[C@@H](CCN)C(=O)N[C@@H]([C@@H](C)O)C(=O)N[C@H](CCN)C(=O)N[C@@H](CCCCN)C(=O)N[C@H](C(=O)N[C@@H](CCN)C(=O)N[C@@H](CCCNC(=N)N)C(=O)N[C@@H](Cc2ccc(O)cc2)C(=O)O)CSSC1(C)C [Example 85, Lys-Arg-betaGly-Val-Pro-Ile-Ile-Tyr-Pen-Asn-Arg-Dab-Thr-^DDab-Lys-Cys-Dab-Arg-Tyr] (HELM PEPTIDE1{K.R.[bAla].V.P.I.I.Y.[Pen].N.R.[Dab].T.[NCC[C@@H](N[*:1])C(=O)[*:2]].K.C.[Dab].R.Y}$PEPTIDE1,PEPTIDE1,9:R3-16:R3$$$V2.0) | 0.0625 | 0.0625 | 0.125 | 0
5 | CC[C@H](C)[C@H](NC(=O)[C@@H]1CCCN1C(=O)[C@@H](NC(=O)[C@@H]1CCCN1C(=O)[C@H](CCCNC(=N)N)NC(=O)[C@@H](N)CCCCN)C(C)C)C(=O)N[C@@H](CCCNC(=N)N)C(=O)N[C@@H](Cc1ccc(O)cc1)C(=O)N[C@@H]1C(=O)N[C@@H](CC(N)=O)C(=O)N[C@@H](CCCNC(=N)N)C(=O)N[C@@H](CCN)C(=O)N[C@@H]([C@@H](C)O)C(=O)N[C@H](CCN)C(=O)N[C@@H](CCCCN)C(=O)N[C@H](C(=O)N[C@@H](CCN)C(=O)N[C@@H](CCCNC(=N)N)C(=O)N[C@@H](Cc2ccc(O)cc2)C(=O)O)CSSC1(C)C [Example 86] (HELM PEPTIDE1{K.R.P.V.P.I.R.Y.[Pen].N.R.[Dab].T.[NCC[C@@H](N[*:1])C(=O)[*:2]].K.C.[Dab].R.Y}$PEPTIDE1,PEPTIDE1,9:R3-16:R3$$$V2.0) | 0.125 | ≤0.03125 | 0.125 | 0

The next lines start with results.

Row | Escherichia coli ATCC 25922 MIC [1] [µg/mL] | Escherichia coli MCR-1 Af 45 MIC [2] [µg/mL] | Klebsiella pneumoniae SSI3010 MIC [3] [µg/mL] | SMILES | Hemolysis at 0.2 g/L [4] [%]
6 | ≤0.03125 | ≤0.03125 | 0.125 | CC[C@H](C)[C@H](NC(=O)[C@@H](NC(=O)[C@@H]1CCCN1C(=O)[C@@H](NC(=O)[C@@H]1CCCN1C(=O)[C@H](CCCCN)NC(=O)[C@@H](N)CCCCN)C(C)C)[C@@H](C)CC)C(=O)N[C@@H](Cc1ccc(O)cc1)C(=O)N[C@H]1CSSC[C@@H](C(=O)N[C@@H](CCN)C(=O)N[C@@H](CCCNC(=N)N)C(=O)N[C@H](C(=O)O)C2CC2)NC(=O)[C@H](CCCCN)NC(=O)[C@@H](CCN)NC(=O)[C@H]([C@@H](C)O)NC(=O)[C@H](CCN)NC(=O)[C@H](CCCNC(=N)N)NC(=O)[C@H](CC(N)=O)NC1=O [Example 81] (HELM PEPTIDE1{K.K.P.V.P.I.I.Y.C.N.R.[Dab].T.[NCC[C@@H](N[*:1])C(=O)[*:2]].K.C.[Dab].R.[O=C(O)[C@@H](N[*:1])C1CC1]}$PEPTIDE1,PEPTIDE1,9:R3-16:R3$$$V2.0) | 0
7 | 0.0625 | 0.0625 | 0.25 | CC[C@H](C)[C@H](NC(=O)[C@@H](NC(=O)[C@@H]1CCCN1C(=O)[C@@H](NC(=O)[C@@H]1CCCN1C(=O)[C@H](CCCCN)NC(=O)[C@@H](N)CCCCN)C(C)C)[C@@H](C)CC)C(=O)N[C@@H](Cc1ccc(O)cc1)C(=O)N[C@H]1CSSC[C@@H](C(=O)N[C@@H](CCN)C(=O)N[C@@H](CCCNC(=N)N)C(=O)N[C@@H](CC(C)(C)C)C(=O)O)NC(=O)[C@H](CCCCN)NC(=O)[C@@H](CCN)NC(=O)[C@H]([C@@H](C)O)NC(=O)[C@H](CCN)NC(=O)[C@H](CCCNC(=N)N)NC(=O)[C@H](CC(N)=O)NC1=O [Example 83] (HELM PEPTIDE1{K.K.P.V.P.I.I.Y.C.N.R.[Dab].T.[NCC[C@@H](N[*:1])C(=O)[*:2]].K.C.[Dab].R.[CC(C)(C)C[C@H](N[*:1])C(=O)O]}$PEPTIDE1,PEPTIDE1,9:R3-16:R3$$$V2.0) | 0
8 | 0.0625 | 0.0625 | 0.125 | CC[C@H](C)[C@H](NC(=O)[C@@H](NC(=O)[C@@H]1CCCN1C(=O)[C@@H](NC(=O)[C@@H]1CCCN1C(=O)[C@H](CCCCN)NC(=O)[C@@H](N)CCCCN)C(C)C)[C@@H](C)CC)C(=O)N[C@@H](Cc1ccc(O)cc1)C(=O)N[C@H]1CSSC[C@@H](C(=O)N[C@@H](CCN)C(=O)N[C@@H](CCCNC(=N)N)C(=O)N[C@H](C(=O)O)C(C)(C)C)NC(=O)[C@H](CCCCN)NC(=O)[C@@H](CCN)NC(=O)[C@H]([C@@H](C)O)NC(=O)[C@H](CCN)NC(=O)[C@H](CCCNC(=N)N)NC(=O)[C@H](CC(N)=O)NC1=O [Example 84] (HELM PEPTIDE1{K.K.P.V.P.I.I.Y.C.N.R.[Dab].T.[NCC[C@@H](N[*:1])C(=O)[*:2]].K.C.[Dab].R.[CC(C)(C)[C@H](N[*:1])C(=O)O]}$PEPTIDE1,PEPTIDE1,9:R3-16:R3$$$V2.0) | 0
9 | ≤0.03125 | ≤0.03125 | 0.25 | CC[C@H](C)[C@H](NC(=O)[C@@H]1CCCN1C(=O)[C@@H](NC(=O)[C@@H]1CCCN1C(=O)[C@H](CCCNC(=N)N)NC(=O)[C@@H](N)CCCCN)C(C)C)C(=O)N[C@H](C(=O)N[C@@H](Cc1ccc(O)cc1)C(=O)N[C@@H]1C(=O)N[C@@H](CC(N)=O)C(=O)N[C@@H](CCCNC(=N)N)C(=O)N[C@@H](CCN)C(=O)N[C@@H]([C@@H](C)O)C(=O)N[C@H](CCN)C(=O)N[C@@H](CCCCN)C(=O)N[C@H](C(=O)N[C@@H](CCN)C(=O)N[C@@H](CCCNC(=N)N)C(=O)N[C@@H](Cc2ccc(O)cc2)C(=O)O)CSSC1(C)C)[C@@H](C)O [Example 87] (HELM PEPTIDE1{K.R.P.V.P.I.T.Y.[Pen].N.R.[Dab].T.[NCC[C@@H](N[*:1])C(=O)[*:2]].K.C.[Dab].R.Y}$PEPTIDE1,PEPTIDE1,9:R3-16:R3$$$V2.0) | 0
